pIC50: −log10 of the molar value.

In this assay the target is T1, Recombinant human KIF18A (1-467 His-tagged) protein (Homo sapiens, UniProt Q8NI77).
T1 construct: Recombinant human KIF18A (1-467 His-tagged) protein; His; made in house
T1 sequence (Q8NI77 1-467): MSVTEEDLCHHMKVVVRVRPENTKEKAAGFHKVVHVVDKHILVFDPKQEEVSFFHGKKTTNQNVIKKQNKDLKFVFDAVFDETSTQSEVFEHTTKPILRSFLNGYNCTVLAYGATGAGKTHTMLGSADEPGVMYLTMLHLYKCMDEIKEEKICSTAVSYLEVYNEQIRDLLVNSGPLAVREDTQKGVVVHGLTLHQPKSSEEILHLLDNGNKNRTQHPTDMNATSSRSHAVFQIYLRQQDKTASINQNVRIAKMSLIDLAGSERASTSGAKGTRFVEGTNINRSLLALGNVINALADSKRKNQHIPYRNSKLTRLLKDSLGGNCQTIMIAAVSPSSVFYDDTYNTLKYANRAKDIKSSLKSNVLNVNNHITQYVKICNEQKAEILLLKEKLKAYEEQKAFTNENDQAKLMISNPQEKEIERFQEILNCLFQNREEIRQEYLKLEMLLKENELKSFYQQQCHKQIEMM
T1 sequence (P02550 whole entry partner): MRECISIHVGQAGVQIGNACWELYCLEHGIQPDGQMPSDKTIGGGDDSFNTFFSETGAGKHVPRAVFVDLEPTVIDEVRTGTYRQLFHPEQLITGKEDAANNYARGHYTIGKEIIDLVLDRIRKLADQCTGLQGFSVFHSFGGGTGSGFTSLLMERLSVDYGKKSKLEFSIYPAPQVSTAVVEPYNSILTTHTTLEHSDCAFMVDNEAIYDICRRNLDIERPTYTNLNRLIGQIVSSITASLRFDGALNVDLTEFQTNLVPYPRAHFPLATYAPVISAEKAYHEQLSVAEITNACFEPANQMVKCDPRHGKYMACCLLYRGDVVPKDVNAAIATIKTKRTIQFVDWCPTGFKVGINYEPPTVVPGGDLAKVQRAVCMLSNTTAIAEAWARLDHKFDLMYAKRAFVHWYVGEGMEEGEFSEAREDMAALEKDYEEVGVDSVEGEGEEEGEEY
T1 sequence (P02554 whole entry partner): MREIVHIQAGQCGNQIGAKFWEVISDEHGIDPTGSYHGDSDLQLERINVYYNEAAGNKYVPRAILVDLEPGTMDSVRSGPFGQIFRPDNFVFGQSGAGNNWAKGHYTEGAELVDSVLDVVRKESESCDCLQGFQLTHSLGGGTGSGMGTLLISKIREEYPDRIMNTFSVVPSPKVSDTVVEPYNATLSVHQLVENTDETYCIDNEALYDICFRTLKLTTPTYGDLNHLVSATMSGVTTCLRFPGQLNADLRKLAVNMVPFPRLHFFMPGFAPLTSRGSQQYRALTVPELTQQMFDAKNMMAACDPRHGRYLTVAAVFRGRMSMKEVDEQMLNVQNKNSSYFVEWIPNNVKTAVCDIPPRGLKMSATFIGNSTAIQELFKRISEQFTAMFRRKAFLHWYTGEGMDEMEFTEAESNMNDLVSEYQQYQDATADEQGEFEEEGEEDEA
As to the kind of experiment: KIF18A Enzyme Assay: microtubule-stimulated ATPase activity (ADP-Glo). The assay is classed as biochemical. As to conditions: 30 nM KIF18A, 75 μM ATP. The source says: KIF18A Enzyme Assay: Microtubule-stimulated ATPase activity assay is used to measure KIF18A enzyme activity after treatment with compound. Compounds were 2-fold serially diluted in DMSO (Sigma Inc) over 22-point concentration range. Recombinant human KIF18A (1-467 His-tagged) protein was expressed using a baculovirus system and purified by affinity chromatography by Amgen Inc. Concentrations of KIF18A protein, microtubules (MT), and ATP in the reaction were optimized for standardized homogenous enzyme assay using ADP-Glorm Kinase/ATPase Assay Kit (Promega Inc). The assay measures ADP formed from the ATPase reaction. […] Read luminescence using EnVision microplate reader with ultra-luminescence module (Perkin Elmer Inc). Concentration-response curve-fitting and IC50 determination was performed using Genedata Screener Software (Standard 15.0.1, Genedata Inc) with a four-parameter logistic regression fit model.
Table A provides data for compounds exemplified in the present application and priority document thereof, as representative compounds of the present invention, as follows: chemical name (as named by either ACD software or ChemDraw (Professional 15.0)) and biological data (IC50 in μM). Ex. # refers to Example No.
On the technique in general: ADP-Glo first removes unused ATP, then detects ADP through luciferase.
Take `CC(C)(C)NS(=O)(=O)c1cccc(NC(=O)c2ccc(N[C@@H]3CCOC[C@H]3O)nc2N2CCC3(CC2)CC3)c1` [Example 102-24, N-(3-(N-(tert-butyl)sulfamoyl)phenyl)-6-(((3S,4R)-3-hydroxytetrahydro-2H-pyran-4-yl)amino)-2-(6-azaspiro[2.5]octan-6-yl)nicotinamide]: the negative-log IC50 (pIC50) was 6.59.

Regarding `CC(C)(C)NS(=O)(=O)c1cccc(NC(=O)c2ccc(NC3COC3)nc2N2CCC3(CC2)CC3)c1` [Example 102-25, N-(3-(N-(tert-butyl)sulfamoyl)phenyl)-6-(oxctan-3-ylamino)-2-(6-azaspiro[2.5]octan-6-yl)nicotinamide], the pIC50 is 7.08.

`CC(C)(C)NS(=O)(=O)c1cccc(NC(=O)c2ccc(NC3(C)COC3)nc2N2CCC3(CC2)CC3)c1` [Example 102-26, N-(3-(N-(tert-butyl)sulfamoyl)phenyl)-6-((3-methyloxetan-3-yl)amino)-2-(6-azaspiro[2.5]octan-6-yl)nicotinamide]: the negative logarithm of the IC50 (pIC50) is 7.25.

For the compound `CC(C)(C)NS(=O)(=O)c1cccc(NC(=O)c2ccc(NC3(CO)COC3)nc2N2CCC3(CC2)CC3)c1` [Example 102-27, N-(3-(N-(tert-butyl)sulfamoyl)phenyl)-6-((3-(hydroxymethyl)oxetan-3-yl)amino)-2-(6-azaspiro[2.5]octan-6-yl)nicotinamide], the negative logarithm of the IC50 (pIC50) was 7.10.

Take `CC(C)(C)NS(=O)(=O)c1cccc(NC(=O)c2ccc(NC3(CO)CCC3)nc2N2CCC3(CC2)CC3)c1` [Example 102-28, N-(3-(N-(tert-butyl)sulfamoyl)phenyl)-6-((1-(hydroxymethyl)cyclobutyl)amino)-2-(6-azaspiro[2.5]octan-6-yl)nicotinamide]: the pIC50 is 7.15.

As for `CC(C)(C)NS(=O)(=O)c1cccc(NC(=O)c2ccc(N[C@H]3C[C@@H](O)C3)nc2N2CCC3(CC2)CC3)c1` [Example 102-29, N-(3-(N-(tert-butyl)sulfamoyl)phenyl)-6-(((1S,3S)-3-hydroxycyclobutyl)amino)-2-(6-azaspiro[2.5]octan-6-yl)nicotinamide], the negative-log IC50 (pIC50) was 7.01.

For `CC(C)(C)NS(=O)(=O)c1cccc(NC(=O)c2ccc(NCCCO)nc2N2CCC3(CC2)CC3)c1` [Example 102-30, N-(3-(N-(tert-butyl)sulfamoyl)phenyl)-6-((3-hydroxypropyl)amino)-2-(6-azaspiro[2.5]octan-6-yl)nicotinamide], the pIC50 is 7.09.

As to `CC(C)(C)NS(=O)(=O)c1cccc(NC(=O)c2ccc(NCc3ccccc3)nc2N2CCC3(CC2)CC3)c1` [Example 102-31, 6-(benzylamino)-N-(3-(N-(tert-butyl)sulfamoyl)phenyl)-2-(6-azaspiro[2.5]octan-6-yl)nicotinamide], the negative-log IC50 (pIC50) is 6.50.

Consider `CC(C)(O)CNc1ccc(C(=O)Nc2cccc(S(=O)(=O)C3CCCC3)c2)c(N2CCC3(CC2)CC3)n1` [Example 103, N-(3-(Cyclopentylsulfonyl)phenyl)-6-((2-hydroxy-2-methylpropyl)amino)-2-(6-azaspiro[2.5]octan-6-yl)nicotinamide], for which the negative logarithm of the IC50 (pIC50) is 7.24.

For the compound `COCCNc1ccc(C(=O)Nc2cccc(S(=O)(=O)C3CCCC3)c2)c(N2CCC3(CC2)CC3)n1` [Example 103-1, N-(3-(cyclopentylsulfonyl)phenyl)-6-((2-methoxyethyl)amino)-2-(6-azaspiro[2.5]octan-6-yl)nicotinamide], the pIC50 was 7.22.

As for `O=C(Nc1cccc(S(=O)(=O)C2CCCC2)c1)c1ccc(NCCCO)nc1N1CCC2(CC1)CC2` [Example 103-2, N-(3-(cyclopentylsulfonyl)phenyl)-6-((3-hydroxypropyl)amino)-2-(6-azaspiro[2.5]octan-6-yl)nicotinamide], the negative logarithm of the IC50 (pIC50) is 7.33.

`CC(C)(C)Nc1ccc(C(=O)Nc2cccc(S(=O)(=O)C3CCCC3)c2)c(N2CCC3(CC2)CC3)n1` [Example 103-3, 6-(tert-butylamino)-N-(3-(cyclopentylsulfonyl)phenyl)-2-(6-azaspiro[2.5]octan-6-yl)nicotinamide]: the pIC50 was 7.05.

`O=C(Nc1cccc(S(=O)(=O)C2CCCC2)c1)c1ccc(NC2(CO)CC2)nc1N1CCC2(CC1)CC2` [Example 103-4, N-(3-(cyclopentylsulfonyl)phenyl)-6-((1-(hydroxymethyl)cyclopropyl)amino)-2-(6-azaspiro[2.5]octan-6-yl)nicotinamide]: the negative-log IC50 (pIC50) is 7.41.

For `O=C(Nc1cccc(S(=O)(=O)C2CCCC2)c1)c1ccc(NC2(CO)CCC2)nc1N1CCC2(CC1)CC2` [Example 103-5, N-(3-(cyclopentylsulfonyl)phenyl)-6-((1-(hydroxymethyl)cyclobutyl)amino)-2-(6-azaspiro[2.5]octan-6-yl)nicotinamide], the pIC50 was 7.27.

Take `O=C(Nc1cccc(S(=O)(=O)C2CCCC2)c1)c1ccc(NC2(CO)COC2)nc1N1CCC2(CC1)CC2` [Example 103-6, N-(3-(cyclopentylsulfonyl)phenyl)-6-((3-(hydroxymethyl)oxetan-3-yl)amino)-2-(6-azaspiro[2.5]octan-6-yl)nicotinamide]: the pIC50 was 7.41.

Turning to `CC(C)(CCO)Nc1ccc(C(=O)Nc2cccc(S(=O)(=O)C3CCCC3)c2)c(N2CCC3(CC2)CC3)n1` [Example 103-7, N-(3-(cyclopentylsulfonyl)phenyl)-6-((4-hydroxy-2-methylbutan-2-yl)amino)-2-(6-azaspiro[2.5]octan-6-yl)nicotinamide], the pIC50 was 7.33.

On to `O=C(Nc1cccc(S(=O)(=O)C2CCCC2)c1)c1ccc(NCC2(O)CC2)nc1N1CCC2(CC1)CC2` [Example 103-8, N-(3-(cyclopentylsulfonyl)phenyl)-6-(((1-hydroxycyclopropyl)methyl)amino)-2-(6-azaspiro[2.5]octan-6-yl)nicotinamide], for which the negative logarithm of the IC50 (pIC50) was 7.38.

For `C[C@@H](CO)Nc1ccc(C(=O)Nc2cccc(S(=O)(=O)C3CCCC3)c2)c(N2CCC3(CC2)CC3)n1` [Example 103-9, (S)-N-(3-(cyclopentylsulfonyl)phenyl)-6-((1-hydroxypropan-2-yl)amino)-2-(6-azaspiro[2.5]octan-6-yl)nicotinamide], the pIC50 was 7.38.

Turning to `C[C@H](CO)Nc1ccc(C(=O)Nc2cccc(S(=O)(=O)C3CCCC3)c2)c(N2CCC3(CC2)CC3)n1` [Example 103-10, (R)-N-(3-(cyclopentylsulfonyl)phenyl)-6-((1-hydroxypropan-2-yl)amino)-2-(6-azaspiro[2.5]octan-6-yl)nicotinamide], the negative-log IC50 (pIC50) was 7.38.

Regarding `C[C@@H](O)CNc1ccc(C(=O)Nc2cccc(S(=O)(=O)C3CCCC3)c2)c(N2CCC3(CC2)CC3)n1` [Example 103-11, (R)-N-(3-(cyclopentylsulfonyl)phenyl)-6-((2-hydroxypropyl)amino)-2-(6-azaspiro[2.5]octan-6-yl)nicotinamide], the negative-log IC50 (pIC50) is 7.12.

For `C[C@H](O)CNc1ccc(C(=O)Nc2cccc(S(=O)(=O)C3CCCC3)c2)c(N2CCC3(CC2)CC3)n1` [Example 103-12, (S)-N-(3-(cyclopentylsulfonyl)phenyl)-6-((2-hydroxypropyl)amino)-2-(6-azaspiro[2.5]octan-6-yl)nicotinamide], the pIC50 is 7.19.

Regarding `O=C(Nc1cccc(S(=O)(=O)C2CCCC2)c1)c1ccc(NC2COC2)nc1N1CCC2(CC1)CC2` [Example 103-13, N-(3-(cyclopentylsulfonyl)phenyl)-6-(oxctan-3-ylamino)-2-(6-azaspiro[2.5]octan-6-yl)nicotinamide], the pIC50 was 7.37.

Turning to `O=C(Nc1cccc(S(=O)(=O)C2CCCC2)c1)c1ccc(N[C@@H]2CC[C@H]2O)nc1N1CCC2(CC1)CC2` [Example 103-14, N-(3-(cyclopentylsulfonyl)phenyl)-6-(((1R,2R)-2-hydroxycyclobutyl)amino)-2-(6-azaspiro[2.5]octan-6-yl)nicotinamide], the pIC50 was 6.79.

As for `O=C(Nc1cccc(S(=O)(=O)C2CCCC2)c1)c1ccc(N[C@@H]2CCOC2)nc1N1CCC2(CC1)CC2` [Example 103-15, (R)-N-(3-(cyclopentylsulfonyl)phenyl)-2-(6-azaspiro[2.5]octan-6-yl)-6-((tetrahydrofuran-3-yl)amino)nicotinamide], the negative logarithm of the IC50 (pIC50) is 7.29.

As for `O=C(Nc1cccc(S(=O)(=O)C2CCCC2)c1)c1ccc(N[C@H]2CCOC2)nc1N1CCC2(CC1)CC2` [Example 103-16, (S)-N-(3-(cyclopentylsulfonyl)phenyl)-2-(6-azaspiro[2.5]octan-6-yl)-6-((tetrahydrofuran-3-yl)amino)nicotinamide], the pIC50 is 6.94.

`O=C(Nc1cccc(S(=O)(=O)C2CCCC2)c1)c1ccc(NCC2(O)CCC2)nc1N1CCC2(CC1)CC2` [Example 103-17, N-(3-(cyclopentylsulfonyl)phenyl)-6-(((1-hydroxycyclobutyl)methyl)amino)-2-(6-azaspiro[2.5]octan-6-yl)nicotinamide]: the pIC50 was 6.77.

With `CC(C)(O)C(C)(C)Nc1ccc(C(=O)Nc2cccc(S(=O)(=O)C3CCCC3)c2)c(N2CCC3(CC2)CC3)n1` [Example 103-18, N-(3-(cyclopentylsulfonyl)phenyl)-6-((3-hydroxy-2,3-dimethylbutan-2-yl)amino)-2-(6-azaspiro[2.5]octan-6-yl)nicotinamide], the pIC50 was 6.96.

For `O=C(Nc1cccc(S(=O)(=O)C2CCCC2)c1)c1ccc(NC2(CCO)CC2)nc1N1CCC2(CC1)CC2` [Example 103-19, N-(3-(cyclopentylsulfonyl)phenyl)-6-((1-(2-hydroxyethyl)cyclopropyl)amino)-2-(6-azaspiro[2.5]octan-6-yl)nicotinamide], the pIC50 is 7.26.

The pIC50 is −log10 of the IC50, conventionally taken in molar units.

The values are drawn from US12540129B2, “KIF18A inhibitors” (AMGEN INC., priority 2019, dated 2026).
